{"source": "patent US20230233545A1", "about": "“TREATMENT OF ATRIAL DYSFUNCTION” (MyoKardia, Inc., priority 2020, published 2023)", "key": {"[1]": {"test_system": "beagle dogs under isoflurane anesthesia, right-atrial burst pacing", "test": "AF inducibility and LA size/function with phenylephrine on board (Example 3)"}, "[2]": {"test": "Pharmacokinetics in healthy volunteers", "conditions": "human, in vivo"}, "[3]": {"target": "T1, left ventricular (LV) myofibrils (Sus scrofa, UniProt P79293)", "T1 construct": "from tissue; host or cells: left ventricle of Yucatan mini-pig heart", "T1 sequence (P79293 whole entry, the tested form may be a part)": "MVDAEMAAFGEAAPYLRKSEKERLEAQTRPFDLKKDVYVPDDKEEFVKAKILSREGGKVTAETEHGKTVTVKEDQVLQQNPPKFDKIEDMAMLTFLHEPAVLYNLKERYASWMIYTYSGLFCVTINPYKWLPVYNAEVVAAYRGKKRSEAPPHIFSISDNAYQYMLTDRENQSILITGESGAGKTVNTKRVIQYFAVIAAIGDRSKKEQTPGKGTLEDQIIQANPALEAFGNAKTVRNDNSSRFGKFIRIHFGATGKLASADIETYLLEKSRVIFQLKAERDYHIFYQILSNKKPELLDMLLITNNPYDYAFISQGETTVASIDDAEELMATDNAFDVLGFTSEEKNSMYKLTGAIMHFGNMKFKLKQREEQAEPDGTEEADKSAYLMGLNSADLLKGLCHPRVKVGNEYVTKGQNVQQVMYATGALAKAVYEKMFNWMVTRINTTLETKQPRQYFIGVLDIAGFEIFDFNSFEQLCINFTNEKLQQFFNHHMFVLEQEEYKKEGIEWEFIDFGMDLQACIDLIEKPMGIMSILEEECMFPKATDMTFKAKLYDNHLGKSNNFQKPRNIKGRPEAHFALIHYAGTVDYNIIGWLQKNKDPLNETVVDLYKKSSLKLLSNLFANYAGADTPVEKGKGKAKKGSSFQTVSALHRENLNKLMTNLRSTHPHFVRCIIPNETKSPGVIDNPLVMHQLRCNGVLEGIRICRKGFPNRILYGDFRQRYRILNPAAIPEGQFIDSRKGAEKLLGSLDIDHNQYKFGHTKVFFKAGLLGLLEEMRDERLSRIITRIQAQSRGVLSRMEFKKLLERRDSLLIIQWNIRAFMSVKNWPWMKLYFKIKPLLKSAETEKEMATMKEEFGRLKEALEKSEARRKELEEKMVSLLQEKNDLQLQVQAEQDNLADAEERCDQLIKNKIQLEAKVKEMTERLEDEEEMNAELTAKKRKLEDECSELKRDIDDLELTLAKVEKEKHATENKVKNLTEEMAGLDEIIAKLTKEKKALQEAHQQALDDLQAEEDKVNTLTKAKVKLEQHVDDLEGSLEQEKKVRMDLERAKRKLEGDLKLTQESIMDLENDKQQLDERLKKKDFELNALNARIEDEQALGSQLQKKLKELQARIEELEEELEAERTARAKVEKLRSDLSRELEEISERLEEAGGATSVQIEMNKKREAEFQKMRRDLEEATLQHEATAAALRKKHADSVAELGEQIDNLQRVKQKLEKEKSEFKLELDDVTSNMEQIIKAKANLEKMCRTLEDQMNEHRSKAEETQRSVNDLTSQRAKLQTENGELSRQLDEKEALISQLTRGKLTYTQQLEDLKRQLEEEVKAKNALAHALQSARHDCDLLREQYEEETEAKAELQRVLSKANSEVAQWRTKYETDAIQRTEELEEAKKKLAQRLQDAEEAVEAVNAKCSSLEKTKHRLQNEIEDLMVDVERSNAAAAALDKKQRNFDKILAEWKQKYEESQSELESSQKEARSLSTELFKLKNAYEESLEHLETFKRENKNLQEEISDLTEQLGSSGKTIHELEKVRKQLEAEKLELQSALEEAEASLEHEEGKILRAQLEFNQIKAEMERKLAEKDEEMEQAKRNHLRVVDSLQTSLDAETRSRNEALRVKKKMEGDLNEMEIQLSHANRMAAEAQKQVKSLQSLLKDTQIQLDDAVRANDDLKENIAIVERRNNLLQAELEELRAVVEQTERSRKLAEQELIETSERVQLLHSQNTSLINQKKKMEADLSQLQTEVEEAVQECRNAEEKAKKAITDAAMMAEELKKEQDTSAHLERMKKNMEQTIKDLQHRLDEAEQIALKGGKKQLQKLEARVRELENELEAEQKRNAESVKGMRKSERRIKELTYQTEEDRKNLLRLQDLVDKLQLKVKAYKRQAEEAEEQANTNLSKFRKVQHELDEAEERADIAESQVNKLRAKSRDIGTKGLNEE", "test": "Steady-state ATPase (ATP turnover rate), LV myofibrils", "format": "biochemical, Yucatan mini-pig", "procedure": "The ability of Compound I to increase myocardial ATP turnover rates selectively was evaluated using both left atrial (LA) and left ventricular (LV) myofibrils prepared from Yucatan mini-pig hearts, as well as subfragment-1 (51) myosins from cardiac (recombinant human), skeletal (rabbit psoas) and smooth (chicken gizzard) muscles. Pig hearts were harvested, and the left atria/ventricles were freshly excised, dissected, frozen in liquid nitrogen and stored at −80° C. Myofibrils and S1 myosins were prepared as described in Kawas et al., J Biol Chem. (2017) 292(40:16571-7. Both atrial (n=4 hearts, 2 replicates each) and ventricular (n=3 hearts, 2 replicates each) myofibrils were assayed at a constant concentration of 1.0 mg/mL (at Ca^2+ sensitivity [pCa] 6.0). Rabbit skeletal (0.2 μM, n=8), chicken gizzard (0.5 n=10) and recombinant human cardiac (0.5 n=10) S1 myosin were assayed with a constant concentration of actin (14 μM).\nSteady-state ATPase measurements at varying concentrations of Compound I (0-50 μM, in 2% DMSO) were conducted using a coupled enzyme system utilizing pyruvate kinase and lactate dehydrogenase. This enzyme system couples the formation of ADP to the oxidation of NADH leading to an absorbance change at 340 nm. The buffering system used in all experiments was 12 mM PIPES, 2 mM MgCl2 and 1 mM dithiothreitol (DTT) at pH 6.8 (PM12 buffer). All measurements were carried out at 25° C. using a plate reader (SpectraMax; Molecular Devices, LLC, CA, USA) to monitor the change in absorbance as a function of time; data were normalized to a per-second scale as described in Green et al., Science (2016) 351(6273):617-21. Data are presented as means (standard deviation [SD]) in text or as mean±standard error of the mean (SEM) in figures; half maximal effective concentration (EC50) values (and 95% confidence intervals [CIs]) were calculated using a four-parameter-fit model (GraphPad Prism, GraphPad Software Inc., CA, USA)."}, "[4]": {"test": "Pharmacokinetics in patients with stable HFrEF", "format": "in vivo", "conditions": "human, oral", "procedure": "In the single-ascending dose trial, single fasting doses of Compound I 175-550 mg or placebo were evaluated in a crossover manner in 12 patients over two sequential cohorts (1 and 2), with intervals between singles doses ranging from 3 days (subsequently amended to 5) to 14 days. In Cohort 1, eight patients were enrolled and all received placebo and Compound I 175 mg and 350 mg (in random sequence and in a blinded fashion) during three periods, A-C. Six patients elected to continue into a fourth optional open label period D. Compound I doses administered in the open-label period included: 350 mg (n=1); 450 mg (divided into two administrations; n=1); 525 mg (n=2); and 550 mg (divided into two administrations; n=2). In Cohort 2, four patients were enrolled, and all received placebo and Compound I 400 mg and 500 mg in random sequence (both active 400 mg and 500 mg doses were divided into two administrations).\nFor each treatment period, pre-dose assessments followed by administration of single dose were performed on Day 1 in the morning. The patient underwent serial pharmacokinetic (PK), pharmacodynamic (PD [trans-thoracic echocardiography or TTE]), ECG and safety laboratory assessments through Day 1 (until the evening) as well as on Day 2. Patients were discharged on Day 3 morning and returned to the clinic on Day 4 for a final PK assessment, and evaluation of adverse events (AEs). […]"}, "[5]": {"conditions": "0.3-0.4 mg/kg IV bolus with 0.3/0.4 mg/kg/hr IV infusion, P<0.05"}, "[6]": {"conditions": "IV bolus + infusion with PE vs PE alone, FIG. 4"}}, "data": [{"smiles": "Cn1cc(S(=O)(=O)[C@@](C)(F)C2CCN(C(=O)Nc3ccon3)CC2)c(C(F)F)n1", "note": "[Compound I, (R)-4-(1-((3-(difluoromethyl)-1-methyl-1H-pyrazol-4-yl)sulfonyl)-1-fluoroethyl)-N-(isoxazol-3-yl)piperidine-1-carboxamide]", "values": [{"measurement": "fractional shortening (FS), increase", "setting": "[1]; [5]", "result": "13±3", "unit": "%"}, {"measurement": "left-ventricular stroke volume (SV), increase", "setting": "[1]; [5]", "result": "16±5", "unit": "%"}, {"measurement": "systolic ejection time (SET), change", "setting": "[1]; 0.3-0.4 mg/kg IV bolus with 0.3/0.4 mg/kg/hr IV infusion, prolonged, P<0.05", "result": "10±3", "unit": "%"}, {"measurement": "SBP under Compound I", "setting": "[1]; 0.3-0.4 mg/kg IV bolus with IV infusion, PE on board, systemic pressures preserved", "result": "135.7±6.2", "unit": "mmHg"}, {"measurement": "LV contractility (ΔEF)", "setting": "[1]; Compound I, Example 3 protocol, FIG. 6", "result": "increase LV contractility"}, {"measurement": "atrial emptying fraction (LA EF)", "setting": "[1]; [6]", "result": "increasing the atrial emptying fraction"}, {"measurement": "left-atrial size (LA Volmin)", "setting": "[1]; [6]", "result": "decreased left-atrial size"}, {"measurement": "AF inducibility (e.g., AF duration)", "setting": "[1]; IV bolus + infusion with PE vs PE alone, burst pacing, FIG. 4", "result": "decreasing AF inducibility"}, {"measurement": "Tmax", "setting": "[2]", "result": "4 to 6", "unit": "h"}, {"measurement": "half-life", "setting": "[2]", "result": "~15", "unit": "h"}, {"measurement": "increase in ATPase, LV porcine myofibrils", "setting": "[3]; at 3 μM", "result": 85, "unit": "%"}, {"measurement": "increase in ATPase turnover rate, ventricular myofibrils", "setting": "[3]; at 50 μM, SD ±0.3", "result": 3.0, "unit": "fold"}, {"measurement": "AC50", "setting": "[3]; pCa 6.0, 25° C., 95% CI 3.7-27.5, read-out: half maximal active concentration [AC50], ATPase turnover rate, ventricular myofibrils", "result": 6, "unit": "µM"}, {"measurement": "half-life", "setting": "[4]; in vivo, patients that received Compound I as part of Cohort 1 (single doses)", "result": "20 to 25", "unit": "h"}, {"measurement": "concentration at 7 days", "setting": "[4]; plasma, 50 mg BID, with food, read-out: steady-state concentration", "result": "2 to 3.5", "unit": "µg/mL"}]}]}
